Results as given in US20110055943A1, “NOVEL THERAPEUTIC TARGETS IN INFLAMMATORY BOWEL DISEASE” (SALIX PHARMACEUTICALS, LTD., priority 2007, published 2011).

Tests used:
[1] = test system: PXR target genes (CYP3A11, GSTA1, MRP2, OATP2); assay: qPCR analysis of PXR target genes in WT mice; type: in vivo, wild-type (WT) mice
human PXR = target: T1, human PXR (Homo sapiens, UniProt O75469); assay: Cell-based reporter assay, DPX2 (hepG2) cell line, luciferase; conditions: for increase in luciferase activity vs DMSO control: 24 h, DPX2 cells
T1 construct: host or cells: DPX2 (HepG2 derivative)
T1 sequence (O75469 1-434): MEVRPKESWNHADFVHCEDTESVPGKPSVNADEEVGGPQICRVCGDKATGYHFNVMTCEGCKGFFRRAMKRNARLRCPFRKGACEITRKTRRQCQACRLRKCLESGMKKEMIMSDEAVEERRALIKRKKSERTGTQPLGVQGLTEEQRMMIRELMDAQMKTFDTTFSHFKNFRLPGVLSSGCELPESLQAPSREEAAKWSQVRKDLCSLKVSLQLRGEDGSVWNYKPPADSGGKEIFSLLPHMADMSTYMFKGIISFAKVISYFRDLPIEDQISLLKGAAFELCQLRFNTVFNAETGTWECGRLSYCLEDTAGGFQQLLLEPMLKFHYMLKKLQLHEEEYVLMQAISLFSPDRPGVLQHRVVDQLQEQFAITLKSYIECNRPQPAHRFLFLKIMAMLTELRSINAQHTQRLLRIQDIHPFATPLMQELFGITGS
Procedure: A hepG2 cell line (DPX2) with stable expression of recombinant human PXR and a PXR-response element cloned in a luciferase vector was obtained from Puracyp Inc. (Carlsbad, Calif.). […] The cells were seeded according to the distributor's instruction. […] For cell-based reporter assay of nuclear receptors CAR, PPARα, PPARγ, and FXR, HCT116 cells were plated on 24-well plates (5×10^4 cells/well, cultured in DMEM containing 10% FBS), and transfected with the various expression vectors using Fugene transfection reagent (Roche, Indianapolis, Ind.). […] The mouse FXR vector was provided by Dr Christopher J. Sinal. […] A standard dual luciferase assay was used and normalized to a cotransfected control reporter (Promega, Madison, Wis.). Each in vitro assay was repeated at least three times.

PPARα = target: T2, PPARα (Mus musculus, UniProt P23204); assay: Cell-based reporter assay, transfected HCT116 cells, dual luciferase; conditions: 10 μM, 24 h
T2 construct: expressed in transfected cells; host or cells: HCT116
T2 sequence (P23204 1-468): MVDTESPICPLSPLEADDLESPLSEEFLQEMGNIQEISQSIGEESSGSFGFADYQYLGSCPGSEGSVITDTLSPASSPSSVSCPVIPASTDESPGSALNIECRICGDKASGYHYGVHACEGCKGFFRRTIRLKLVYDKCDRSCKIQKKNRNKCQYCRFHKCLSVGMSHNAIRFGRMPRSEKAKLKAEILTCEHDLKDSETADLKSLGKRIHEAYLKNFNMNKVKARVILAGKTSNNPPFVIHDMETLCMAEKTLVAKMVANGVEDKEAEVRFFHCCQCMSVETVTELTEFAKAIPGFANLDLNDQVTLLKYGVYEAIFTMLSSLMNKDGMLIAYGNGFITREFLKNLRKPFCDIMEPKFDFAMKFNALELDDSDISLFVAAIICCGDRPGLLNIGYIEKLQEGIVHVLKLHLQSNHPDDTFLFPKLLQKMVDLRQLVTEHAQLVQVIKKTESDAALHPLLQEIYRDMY
Procedure: A hepG2 cell line (DPX2) with stable expression of recombinant human PXR and a PXR-response element cloned in a luciferase vector was obtained from Puracyp Inc. (Carlsbad, Calif.). The construction and validation of the cell lines were reported previously (Yueh et al., 2005). The cells were seeded according to the distributor's instruction. […] The activation of PXR was determined by measuring the firefly luciferase activity 24 h later, followed by normalization of luciferase activity by protein concentrations. For cell-based reporter assay of nuclear receptors CAR, PPARα, PPARγ, and FXR, HCT116 cells were plated on 24-well plates (5×10^4 cells/well, cultured in DMEM containing 10% FBS), and transfected with the various expression vectors using Fugene transfection reagent (Roche, Indianapolis, Ind.). The mouse PPAR and CAR vectors were described in previous reports (Kliewer et al., 1992; Swales et al., 2005). The mouse FXR vector was provided by Dr Christopher J. Sinal. […] TCPOBOP (250 nM), Wy-14,643 (10 μM), rosiglitazone (10 μM), and GW4064 (25 μM) were used as positive controls respectively for mouse CAR, PPARα, PPARγ, and FXR. A standard dual luciferase assay was used and normalized to a cotransfected control reporter (Promega, Madison, Wis.). Each in vitro assay was repeated at least three times.

[2] = test system: PXR target genes (CYP3A11, GSTA1, MRP2, OATP2); assay: qPCR analysis of PXR target genes in hPXR mice
Procedure: RIF, a specific human PXR ligand, was used as positive control at 25 mg/kg/day (p.o.) for 3 days. […] Liver and small intestine were collected and frozen at −80° C. for further analysis.
RNA was extracted from different tissues using TRIzol reagent (Invitrogen, Carlsbad, Calif.). qPCR was performed using cDNA generated from 1 μg total RNA with SuperScript II Reverse Transcriptase kit (Invitrogen). PCR reactions were carried out using SYBR green PCR master mix (SuperArray) in an ABI Prism 7900HT Sequence Detection System (Applied Biosystems, Foster City, Calif.). Values were quantified using the Comparative CT method, and samples normalized to β-actin.

[3] = WT mice, small intestine, 25 mg/kg/day p.o. 3 days
[4] = small intestine, 25 mg/kg/day p.o. 3 days

Intestinal CYP3A11 expression [1, 3]: inhibited
Intestinal GSTA1 mRNA increase [1, 3]: 87%
Intestinal OATP2 mRNA [1, 3]: no significant induction
intestinal MRP2 mRNA [1, 3]: significantly suppressed
effect on hepatic PXR target genes ([1]; wild-type mice, liver, oral treatment): no significant effect
increase in luciferase activity vs DMSO control (human PXR; 1 μM): 2.1 fold
increase in luciferase activity vs DMSO control (human PXR; 10 μM): 6.7 fold
increase in luciferase activity vs DMSO control (human PXR; 100 μM): 25.2 fold
EC50 (human PXR; DPX2 cell line, read-out: EC50 for activation of hPXR): ~20 µM
change in luciferase activity in the presence of PPARα (PPARα): no significant change
CYP3A11, GSTA1, MRP2 and OATP2 mRNAs in small intestine ([2]; 25 mg/kg/day p.o. 3 days): all up-regulated
MRP2 in the gut ([2]; 25 mg/kg/day p.o. 3 days): only modestly induced
PXR target genes in the intestine ([2]; intestine, oral treatment): significant induction
GSTA1 in liver ([2]; liver, 25 mg/kg/day p.o. 3 days): increased
effect on hepatic PXR target genes ([2]; liver, oral treatment): no significant effect
Intestinal CYP3A11 increase compared to vehicle-treated mice [2, 4]: ~4 fold
Intestinal GSTA1 mRNA increase [2, 4]: 172%
Intestinal OATP2 mRNA increase [2, 4]: 3.4 fold
intestinal MRP2 mRNA [2, 4]: significant up-regulation
Structure (SMILES): COC1/C=C/OC2(C)Oc3c(C)c(O)c4c(O)c(c5c(nc6cc(C)ccn65)c4c3C2=O)NC(=O)/C(C)=C\C=C\C(C)C(O)C(C)C(O)C(C)C(OC(C)=O)C1C (stereo not shown) [RIFax, 4-Deoxy-4′-methylpyrido[1′,2′-1,2]imidazo[5,4-c]rifamycin SV]
